Here are results for three compounds from US20070078185A1, “Methods and compositions for controlling invertebrate pests” (priority 2005, published 2007).

SMILES strings stand for the structures.

Assay [1] deals with C. elegans. Nature of the assay: Egg-laying assay with exogenous amine on Petri plates. It is filed as in vivo. The following applies: wild-type animals, Petri plates with bacteria containing 20 mM tyramine. The protocol: FIGS. 5A-SC are graphs showing that tdc-1 mutant nematodes are hyperactive in egg laying. […] Error bars indicate standard errors of the means. […] Single wild-type animals were transferred to Petri dishes with bacteria containing either no tyramine (n=13) or 20 mM tyramine (n=12). At the indicated times after transfer the number of eggs laid was counted. Error bars indicate standard errors ofthe means.
We therefore tested the effect of exogenous tyramine on egg laying behavior. Egg laying was inhibited on Petri plates containing 20 mM tyramine (FIG. 5C). […] Egg laying is regulated in part by the serotonergic HSN neurons, which induce muscle contraction of the vulva muscles (Trent et al., Genetics 104:619-647 (1983)).
Behavioral assays were performed with young adults at room temperature (22-24° C.) and the different genotypes were scored in parallel on independent days. Egg-laying assays were performed as described by Koelle and Horvitz (Cell 84:115 (1996)). Suppression of head oscillations was tested by striking animals that were outside the bacterial lawn with a fine eyelash behind the posterior bulb of the pharynx; head oscillations were scored during backing response. Nose touch, osmotic avoidance touch were tested as previously described (see, for example, Way et al., Genes Dev. 3:1823-1833 (1989); or Bargmann et al., Cold Spring Harb. Symp. Quant. Biol. 55:529-538 (1990)). […]

The subject of assay [2] is C. elegans. Nature of the assay: In vivo response test: suppression of head oscillations in response to anterior touch, C. elegans on agar plates. Particulars: compound added to C. elegans grown on agar plates at 0.3 mg/ml. How it is done: Behavioral assays were performed with young adults at room temperature (22-24° C.) and the different genotypes were scored in parallel on independent days. Egg-laying assays were performed as described by Koelle and Horvitz (Cell 84:115 (1996)). Suppression of head oscillations was tested by striking animals that were outside the bacterial lawn with a fine eyelash behind the posterior bulb of the pharynx; head oscillations were scored during backing response. Nose touch, osmotic avoidance touch were tested as previously described (see, for example, Way et al., Genes Dev. 3:1823-1833 (1989); or Bargmann et al., Cold Spring Harb. Symp. Quant. Biol. 55:529-538 (1990)). […] Animals were tested twenty-four hours after they were picked as late L4. Laser-ablated animals were tested at least ten times. […] Laser ablated animals were tested at least 20 times. Reversal assays were performed as described by Tsalik et al., J. Neurobiol. 56:178-197 (2003). Synthesis of 4-hydrazinomethyl-benzene-1,3-diol (compound 1). [drawing 4]
Alternatively, putative tyrosine decarboxylase inhibitors can be screened in vivo by observing its effect on invertebrates. […] Furthermore, a tyrosine decarboxylase inhibitor is expected to cause egg laying defects in nematodes, fruit flies, and other invertebrates. […]

The subject of assay [3] is C. elegans. The following applies: exogenous octopamine (Horvitz et al., Science 216:1012-1014 (1982)); cited from earlier work.

With `NCCc1ccc(O)cc1` [tyramine], the “effect of exogenous tyramine on egg laying” value in the assay with C. elegans [1] was “inhibited”.

`NC(CO)C(=O)NNCc1ccc(O)cc1O` (racemic) [compound 2, N-(DL-seryl)-N′-(2,4,-dihydroxybenzyl) hydrazine]: in the assay on C. elegans [2], the “suppression of head oscillations in response to anterior touch” value is “fail to suppress head oscillations”.

For `NCC(O)c1ccc(O)cc1` (stereo not drawn) [octopamine], the “effect of exogenous octopamine on egg laying” value in the assay with C. elegans [3] is “inhibitory effect”.
